# Experiment: skeletal imaging with scintillation camera
# Format: in vivo, adult human subject
# Procedure: An imaging agent is prepared using this kit by adding about 5 ml of a pertechnetate-Tc99m physiological saline with an activity of about 75 mCi, from a commercial technetium source. The kit is agitated until the kit components are dissolved. About 1 ml of the agent is slowly injected, over a period of about 30 seconds, into an adult human subject weighing about 75 kg.
# [1] = component substituted in the kit of Example 1 or Example II, compared with the original kit
Compound,results when substituted in the kit [1],results when substituted in the kit (in vivo)
CC1CC(O)=C(O)C1=O (stereo not drawn) [5-methyl reductic acid],substantially similar results,–
O=C1O[C@H]([C@@H](O)CBr)C(O)=C1O [6-bromo-6-deoxyascorbic acid],substantially similar results,–
O=C1O[C@H]([C@@H](O)CCl)C(O)=C1O [6-chloro-6-deoxyascorbic acid],substantially similar results,–
"CC(O)(P(=O)(O)O)P(=O)(O)O [EHDP, ethane-1-hydroxy-1,1-diphosphonic acid, reference compound]",substantially similar results,–
"O=P(O)(O)C(O)P(=O)(O)O [HMDP, methanehydroxydiphosphonic acid, reference compound]",substantially similar results,–
"O=P(O)(O)CP(=O)(O)O [MDP, methanediphosphonic acid, reference compound]",substantially similar results,–
O=C1O[C@H]([C@H](O)CO)C(O)=C1O [erythorbic acid],substantially similar results,–
"NCC(O)(P(=O)(O)O)P(=O)(O)O [ethane-1-hydroxy-2-amino-1,1-diphosphonic acid, reference compound]",substantially similar results,–
"CN(C)C(P(=O)(O)O)P(=O)(O)O [methane-N,N-dimethylaminodiphosphonic acid, reference compound]",substantially similar results,–
"CNC(P(=O)(O)O)P(=O)(O)O [methane-N-methylaminodiphosphonic acid, reference compound]",substantially similar results,–
"NC(P(=O)(O)O)P(=O)(O)O [methaneaminodiphosphonic acid, reference compound]",substantially similar results,–
O=C1CCC(O)=C1O [reductic acid],substantially similar results,–
O=C1O[C@H]([C@@H](O)CO)C([O-])=C1O.[Na+] [sodium ascorbate],substantially similar results,–
O=C1O[C@H]([C@@H](O)CBr)C([O-])=C1O.[Na+] [sodium-6-bromo-6-deoxyascorbate],substantially similar results,–
O=C1O[C@H]([C@@H](O)CCl)C([O-])=C1O.[Na+] [sodium-6-chloro-6-deoxyascorbate],substantially similar results,–
O=S(=O)([O-])[O-].[Sn+2] [stannous sulfate],substantially similar results,–
O=C([O-])[C@H](O)[C@@H](O)C(=O)[O-].[Sn+2] [stannous tartrate],substantially similar results,–
stannous fluoride,–,substantially similar results
